According to patent publication US4937184A, “N-demethylefrotomycin” (Pfizer Inc., priority 1989, dated 1990):
Values after ≈ are worked out from the molar mass of the structure shown.

What was measured:
Lact. acidoph. = test: In vitro MIC in brain heart infusion (BHI) broth, Lact. acidoph.; type: cell-based; details: 24 h, strain 001, replicate Day 1
Excerpt: (§1) Generally twelve 2 fold dilutions of the test compound are employed, with initial concentration of the test drug being in the range of 50 to 200 mcg./ml. The susceptibility (MIC) of the test organism is accepted as the lowest concentration of compound capable of producing complete inhibition of growth as judged by the naked eye.

Hemoph. pleur. = test: In vitro MIC in brain heart infusion (BHI) broth, Hemoph. pleur.; type: cell-based; details: 24 h
Excerpt: as §1

E. coli = test: In vitro MIC in brain heart infusion (BHI) broth, E. coli; type: cell-based; details: Escherichia coli
Excerpt: as §1

Past. haem. = test: In vitro MIC in brain heart infusion (BHI) broth, Past. haem.; type: cell-based
Excerpt: as §1

Acto. pyog. = test: In vitro MIC in brain heart infusion (BHI) broth, Acto. pyog.; type: cell-based; details: 24 h
Excerpt: as §1

Past. haem. 010 = test: Mouse protection test, i.p. infection with multilethal amounts of Past. haem. 010; type: in vivo, mice; details: subcutaneous, infected i.p. with multilethal amounts of Past. haem. 010
Experimental: Additionally, compound (I) is tested in vivo by the well-known mouse protection test, or by a microbiological (bioassay) determination of serum levels in a variety of mammals (e.g., mouse, rat, dog). For example, at subcutaneous doses of either 100 mg./kg. or 25 mg./kg., there was survival of 5/5 mice infected i.p. with multilethal amounts of Past. haem. 010.

Past. mult = test: In vitro MIC in brain heart infusion (BHI) broth, Past. mult; type: cell-based; details: 48 h
Excerpt: as §1

Question: For `CC=CC=CC1OC(O)(C(CC)C(=O)NCC=CC=C(C)C(OC)C(C)C2OC(C=CC=CC=C(C)C(=O)c3c(O)cc[nH]c3=O)C(O)C2O)C(O)C(OC2OC(C)C(OC3OC(C)C(OC)C(O)C3OC)C(OC)C2O)C1(C)C` (stereo not shown) [N-Demethylefrotomycin, N-demethylefrotomycin], which MIC (Lact. acidoph.) is on record?
Answer: The MIC was 12.5 µg/mL (≈ 11 µM).

Question: What about the MIC (Hemoph. pleur.; strain 004, replicate Day 1) of the same compound?
Answer: Its MIC is 12.5 µg/mL (≈ 11 µM).

Question: And the MIC (Hemoph. pleur.; strain 005, replicate Day 1)?
Answer: Its MIC is 12.5 µg/mL (≈ 11 µM).

Question: What about the MIC (E. coli; 24 h, strain 124, replicate Day 1) of the same compound?
Answer: The MIC was over 100 µg/mL.

Question: What about the MIC (E. coli; 48 h, strain 124, replicate Day 2) of the same compound?
Answer: Its MIC is over 100 µg/mL.

Question: What about the MIC (Past. haem.; 24 h) of the same compound?
Answer: Its MIC is 12.5 µg/mL (≈ 11 µM).

Question: What about the MIC (Past. haem.; 48 h) of the same compound?
Answer: The MIC was 12.5 µg/mL (≈ 11 µM).

Question: What about the MIC (Past. haem.; strain 046, replicate Day 2, BHI broth) of the same compound?
Answer: The MIC was 12.5 µg/mL (≈ 11 µM).

Question: And the MIC (Acto. pyog.; strain 002, replicate Day 1)?
Answer: The MIC was 12.5 µg/mL (≈ 11 µM).

Question: What about the MIC (Acto. pyog.; strain 008, replicate Day 1) of the same compound?
Answer: Its MIC is 12.5 µg/mL (≈ 11 µM).

Question: And the survival (Past. haem. 010; 25 mg./kg.)?
Answer: Its survival is 5/5.

Question: And the survival (Past. haem. 010; 100 mg./kg.)?
Answer: Its survival is 5/5.

Question: And the MIC (Past. mult)?
Answer: Its MIC is 12.5 µg/mL (≈ 11 µM).
